According to patent US20060167083A1, “Therapeutic methods and compositions involving isoflav-3-ene and isoflavan structures” (priority 2002, published 2006):
In brackets after ≈: the same amount, converted by molar mass. Several values for one entry are separate records, joined by “and”; a condition that tells them apart may be missing. Equal values may be shown once.

Assays:
human topo I = molecular target: T1, human topo I (Homo sapiens, UniProt P11387); experiment: Topo I-mediated plasmid-nicking assay; type: biochemical; conditions: 20 and 100 μg/ml
T1 construct: purchased Topogen (Columbus, Ohio)
T1 sequence (P11387 1-765): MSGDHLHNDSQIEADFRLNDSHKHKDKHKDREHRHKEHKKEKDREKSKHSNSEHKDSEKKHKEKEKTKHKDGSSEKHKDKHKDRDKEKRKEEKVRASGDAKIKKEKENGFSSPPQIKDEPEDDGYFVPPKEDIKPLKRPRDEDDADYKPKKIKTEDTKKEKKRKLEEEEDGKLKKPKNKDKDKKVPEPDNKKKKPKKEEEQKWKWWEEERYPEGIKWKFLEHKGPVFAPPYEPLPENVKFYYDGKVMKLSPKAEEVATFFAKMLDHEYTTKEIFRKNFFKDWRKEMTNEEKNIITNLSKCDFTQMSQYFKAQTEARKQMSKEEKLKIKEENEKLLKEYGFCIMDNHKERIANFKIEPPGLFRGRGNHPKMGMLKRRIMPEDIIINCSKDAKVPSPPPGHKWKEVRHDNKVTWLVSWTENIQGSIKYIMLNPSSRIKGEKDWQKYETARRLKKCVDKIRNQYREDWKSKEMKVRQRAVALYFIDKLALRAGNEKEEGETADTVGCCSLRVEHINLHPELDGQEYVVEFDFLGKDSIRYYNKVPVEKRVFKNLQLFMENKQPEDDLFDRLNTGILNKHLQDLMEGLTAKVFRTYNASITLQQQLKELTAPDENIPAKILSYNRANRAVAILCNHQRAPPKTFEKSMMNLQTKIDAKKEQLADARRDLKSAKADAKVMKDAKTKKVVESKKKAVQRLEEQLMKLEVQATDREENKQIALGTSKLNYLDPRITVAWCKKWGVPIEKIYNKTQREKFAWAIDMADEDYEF
Experimental: Single-strand DNA breakage was determined by converting relaxed (REL) or supercoiled (SC) pUC8 DNA to the nicked form (NIC).
Under the electrophoretic conditions that were used in the experiment shown in FIG. 4, covalently closed circular (supercoiled or relaxed) plasmid DNA migrates on the bottom of the gel. In the presence of a topo I poison that stabilises the cleavable complex, and following denaturation and degradation of the enzyme with proteinase K/SDS, the resulting nicked DNA migrates on the top of the gel.
Topo I poisons enhance topo I-mediated pUC8 DNA cleavage under the reaction conditions provided by the supplier of the enzyme (Topogen, Inc.). Briefly, 20 μl of reaction mixtures contained 10 mM Tris-HCl, pH 7.5, 1 mM EDTA, 100 mM NaCl, 1 μl of the test agent (or solvent), 0.5 μg of pUC8, and 10 units of human topo I (added last). After a 30-min incubation at 37° C., SDS-proteinase K was added, and, following a 30-min incubation at 37° C., samples were extracted with CHCl3-isopropanol and electrophoresed on a 1% agarose gel containing 0.5 μg/ml ethidium bromide. Gels were photographed, and photographic negatives were scanned.

tNOX = molecular target: T2, tNOX (Homo sapiens, UniProt Q16206); experiment: tNOX inhibition, 96-well plate assay with HeLa in dithiodipyridine substrate; type: cell-based; conditions: 10 μm
T2 construct: endogenous in cells; host or cells: HeLa (human cervical carcinoma)
T2 sequence (Q16206 whole entry): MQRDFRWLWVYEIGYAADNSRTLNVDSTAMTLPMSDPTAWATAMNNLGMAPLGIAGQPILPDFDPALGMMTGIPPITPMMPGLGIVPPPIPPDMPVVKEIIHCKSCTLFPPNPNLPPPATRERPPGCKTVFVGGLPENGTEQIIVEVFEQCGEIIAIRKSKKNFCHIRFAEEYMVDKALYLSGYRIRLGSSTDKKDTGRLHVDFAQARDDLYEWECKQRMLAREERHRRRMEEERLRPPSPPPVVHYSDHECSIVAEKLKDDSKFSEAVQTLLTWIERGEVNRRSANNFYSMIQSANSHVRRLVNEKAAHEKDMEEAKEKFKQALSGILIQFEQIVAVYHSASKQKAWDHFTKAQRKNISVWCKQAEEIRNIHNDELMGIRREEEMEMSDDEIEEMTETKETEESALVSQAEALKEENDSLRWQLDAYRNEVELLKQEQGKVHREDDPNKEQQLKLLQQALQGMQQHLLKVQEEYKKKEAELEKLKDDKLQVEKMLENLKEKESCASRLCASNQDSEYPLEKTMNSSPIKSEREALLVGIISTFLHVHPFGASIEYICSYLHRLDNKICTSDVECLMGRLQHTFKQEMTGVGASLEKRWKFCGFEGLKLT
From the text: A 96-well plate assay was used containing human cervical carcinoma (HeLa) in a dithiodipyridine substrate.

[1] = test system: human cervical carcinoma (HeLa); experiment: HeLa cell apoptosis; type: cell-based; conditions: 10 μm
leukaemic cell line K562 = experiment: Anti-proliferative effect on K562; type: cell-based; conditions: Homo sapiens
leukaemic cell line HL60 = experiment: Anti-proliferative effect on HL60; type: cell-based; conditions: Homo sapiens, HL-60
breast cancer line MCF7 = experiment: Anti-proliferative effect on MCF7; type: cell-based; conditions: Homo sapiens
colon cancer line HT29 = experiment: Anti-proliferative effect on HT29; type: cell-based; conditions: Homo sapiens, HT-29
prostate cancer line PC3 = experiment: Anti-proliferative effect on PC3; type: cell-based; conditions: Homo sapiens, PC-3
[2] = test system: K562, HL60, MCF7, HT29, CaCo-2, DU145, PC3 and LNCaP cell lines; experiment: Cytotoxic potency compared with genistein on the cancer cell line panel; type: cell-based; conditions: on these cell lines
[3] = test system: LNCaP human prostate cells; experiment: Athymic mice xenograft assay; type: in vivo, athymic Balb/c mice; conditions: 2 mg uid orally, 5 days per week, 58 days; treated versus control group, p<0.0003
Experimental: Athymic mice xenograft assay: LNCaP human prostate cells were implanted subcutaneously into athymic Balb/c mice and De (2 mg uid) administered orally from the time of cell inoculation for 5 days per week. Animals were killed 58 days post-implantation and tumour mass (mg) calculated from the formula (width^2×length)/2 as used in NCI.

[4] = test system: Ras transformed NIH 3T3 cells; experiment: Focus formation assay; type: cell-based; conditions: 10 μg/ml, 3 weeks
Experimental: (§1) Focus formation assay: Low passage NIH 3T3 cells were transfected with either human ras gene (Ras) or empty vector (Vect) control^19. Two days later the transfected cells were seeded in 6 well plates. After reaching confluence, the cells were cultured in the vehicle DMSO or De (10 μg/ml final) for 3 weeks with media change every 3-4 days (±De). Foci were scored after staining with 0.5% crystal violet. One experiment of two performed is shown.

normal NIH 3T3 cells = experiment: Viability of normal NIH 3T3 cells in focus formation assay; type: cell-based; conditions: 10 μg/ml, 3 weeks
Experimental: as §1

MMP-2 = experiment: Northern blot analysis of MMP-2 mRNA in endothelial cells; type: cell-based, human; conditions: 10 μg/ml for 18 hours; two experiments; listed as De
Experimental: Northern blot analysis: HUVEC were plated at 1×10^6 cells per 25 cm^2 flask and grown for 48 hours. Following treatment with DMSO vehicle or De (10 μg/ml final) for 18 hours, total RNA was harvested and purified using TRIZOL reagent (Invitrogen—Life Technologies, Groningen, Netherlands) according to the manufacturer's protocol. Northern blot analysis was performed using 8 μg total RNA transferred onto Hybond-N membranes (Amersham Biosciences, Buckinghamshire, England) and probed with human MMP-2 and GAPDH cDNAs using a Strip-EZ PCR stripAble PCR Probe synthesis and removal Kit (Ambion, Tex., USA).

VCAM-1 = VCAM-1 expression assay on endothelial cells (FACS); type: cell-based, human; conditions: 10 μg/ml 18 hours prior to stimulation; TNF and IL-1
Experimental: E selectin and VCAM-1 assays: HUVEC were plated at 5×10^5 cells per 6 well dish. Cells were treated with DMSO vehicle or De (10 μg/ml final) for 18 hours prior to TNFα (1 ng/ml) addition. After 4 or 18 hours, cells were washed with PBS and incubated with antibodies against E selectin (Mab49-1B11) or VCAM-1 (Nab51-10C9) for 30 min. Goat F(ab′)2 fragment mouse-IgG(H+L)-FITC antibody (Immunotech, Marseille, France) was then added for 30 min. The cells were then trypsinised and FACS analysed on a Coulter Epics® XL-MCL (Beckman Coulter). Results are expressed as arbitrary units relating to the mean intensity of FITC fluorescence.

IL-8 = IL-8 secretion from endothelial cells (immunoassay); type: cell-based, human; conditions: TNF stimulated endothelial cells
Experimental: IL8 assay: IL-8 assays were performed using a “Quantikine Human IL-8 Immunoassay” (R & D Systems, Minneapolis Minn. USA).

PECAM-1 = PECAM-1 expression on EC, flow cytometric analysis; type: cell-based; conditions: after De treatment, data not shown
VEGF receptor 2 = VEGF receptor 2 expression on EC, flow cytometric analysis; type: cell-based; conditions: after De treatment, data not shown
sphingomyelinase = experiment: TNF-stimulated sphingomyelinase activity; type: cell-based; conditions: data not shown

SMILES: Oc1ccc(C2=Cc3ccc(O)cc3OC2)cc1 [Dehydroequol, 4′,7-dihydroxyisoflav-3-ene]
- topo I-mediated single-strand DNA breakage (nicked DNA) (human topo I): failed to produce nicked DNA
- inhibition of tNOX activity (tNOX): inhibit tNOX activity
- apoptosis of HeLa cells [1]: leading to HeLa cell apoptosis
- IC50 (leukaemic cell line K562): 3 µg/mL (≈ 12.5 µM)
- IC50 (leukaemic cell line HL60): 1.5 µg/mL (≈ 6.24 µM)
- IC50 (breast cancer line MCF7): 1.5 µg/mL (≈ 6.24 µM)
- IC50 (colon cancer line HT29): 15 µg/mL (≈ 62.4 µM)
- IC50 (prostate cancer line PC3): 2 µg/mL (≈ 8.32 µM)
- potency as a cytotoxic agent relative to genistein [2]: 5-20 times
- tumour growth inhibition [3]: 49%
- inhibition of development of colonies (foci) [4]: completely inhibited
- viability of normal cells (normal NIH 3T3 cells): still maintaining the viability
- decrease in level of mRNA for MMP-2 (MMP-2): 68.3% and 46.7%
- induction of VCAM-1 on the endothelium (VCAM-1): inhibits the induction
- secretion of EL-8 (IL-8): inhibits the secretion
- level of expression of PECAM-1 (PECAM-1): no changes
- level of expression of VEGF receptor 2 (VEGF receptor 2): no changes
- effect on TNF-stimulated sphingomyelinase activity (sphingomyelinase): does not affect
